Laboratory results reported in patent publication US20260000496A1, “MATERIALS AND METHODS FOR DRUG-INDUCED GINGIVAL OVERGROWTH” (Optimed Technology, Inc., priority 2019, published 2026).

Tests used:
Human TNF-α promoter = assay: TNF-α promoter luciferase reporter assay in oral keratinocytes; type: cell-based; conditions: full length promoter and deletion constructs; CSA, LPS & Folic acid each 10 μg/ml; p<0.05
Description: Reporter assay. The TNF-α promoter deletion constructs, Δ−1220 (−1220 to +65) and Δ−450 (−450 to +65) were synthesized from SwitchGear Genomics (USA) for the luciferase reporter assay. The human TNF-α promoter constructs or an empty pLightSwitch promoter reporter vector as a control was transfected in to NOKSI using the FuGene reagent (SwitchGear Genomics, USA). Cells were seeded with a density of 5×10^3 per well of 96-well plate. GoClone reporter constructs and transfection reagents were mixed with optimum combination and incubated for 30 minutes. The media were changed to the seeded cells and reaction mixture were gently dripped onto the seeded cells, shaked the plate gently and incubated for next 24 hours. The LightSwitch assay reagents were added to the transfected plates and incubated for 30 minutes at room temperature. Luciferase activity were measured with a luminometer (Wallac Vector3; PerkinElmer, Boston, MA).
Oral Keratinocytes cells were transfected with Full length TNF-α promoter and […] and treated with CSA (10 μg/ml) & LPS (10 μg/ml), and CSA (10 μg/ml), LPS (10 μg/ml) & Folic acid (10 μg/ml). TNF-α luciferase reporter activity were measured. (p<0.05).

[1] = tested on: TGF-β secreted by HOF cells; assay: TGF-β ELISA in Human Oral Fibroblast cells; type: cell-based; conditions: HOF treated with conditioned media from Oral Keratinocytes
Description: Cell Culture. Normal human oral keratinocytes (NOKSI) and fibroblast (HOF) cells were maintained in Dulbecco […] Eagle's medium (Sigma-Aldrich, St. Louis, MO, USA) supplemented with 10% fetal bovine serum (Atlas Bio-logicals, Fort Collins, CO, USA) and 100 units/mL penicillin and 100 μg/mL streptomycin (LifeTechnologies, Carlsbad, CA, USA). Cells were grown in incubator at 37° C. in a humidified chamber with 5% CO2.
Enzyme linked immunosorbent assay (ELISA). ELISA was conducted with a mouse TNF-α ELISA Kit (PeproTech, USA) and TGF-β Emax ImmunoAssay System (Promega USA) to detect the TNF-α and TGF-β respectively. After normalization of the total cells or tissue protein lysates, 20 μg protein of each sample was used for the detection of TNF-α or TGF-β. ELISA was performed according to the manufacturers' instructions. For TNF-α, 100 ng/100 μl of capture antibody was added to each well of 96 well assay plate and incubated for overnight at room temperature. Blocking buffer of 200 μl per well were added to each well and incubated for 1 hour at room temperature. […] Optical absorbing values were read at 405 and 450 nm and corrected by 650 nm. […] TMB One Solution was added for 15 minutes and the reaction were stopped using 100 μl of 1N hydrochloric acid and the absorbance at 450 nm were recorded on a plate reader. Data were analyzed using excel software. […]

For Nc1nc2ncc(CNc3ccc(C(=O)N[C@@H](CCC(=O)O)C(=O)O)cc3)nc2c(=O)[nH]1 [folic acid], the “TNF-α luciferase reporter activity” value (Human TNF-α promoter) was “inhibits promoter activity of TNF-α” and the “amount of TGF-β secreted by HOF cells” value [1] was “reduce TGF-β expression”.
